The record followed here is ChEMBL document CHEMBL1926626, “Design and synthesis of benzo[c,d]indolone-pyrrolobenzodiazepine conjugates as potential anticancer agents” (Bioorg Med Chem, 2012).

Active and inactive are the calls of the source. No cut-off for these calls is given here.

Data set [1] concerns HEK293. As to the kind of experiment: Cytotoxicity activity against human HEK293 cells after 48 hrs by MTT assay. The data set is classed as cell-based. The conditions noted are these: hek293, 48 h. On the technique in general: Tetrazolium dyes change colour on reduction, which living cells bring about.
Data set [2] relates to PC-3. As to the kind of experiment: Anticancer activity against human PC3 cells after 48 hrs by MTT assay. The data set is classed as functional, cell-based. The conditions noted are these: PC-3, 48 h.
For data set [3], the system named is A-431. Put plainly: Anticancer activity against human A431 cells after 48 hrs by MTT assay. It counts as functional, cell-based. As to conditions: A-431, 48 h.
Data set [4] concerns Nucleic Acid. As to the kind of experiment: Binding affinity to calf thymus DNA assessed as change in melting temperature at compound:DNA molar ratio of 1:5 after 18 hrs at 37 degC by thermal denaturation assay (RVb = 0.3 to 3.1 degC). It counts as nucleic-acid assay. The conditions noted are these: Bos taurus.
The test system of data set [5] is A549. Put plainly: Anticancer activity against human A549 cells after 48 hrs by MTT assay. As to conditions: A549, 48 h.
For data set [6], the system named is COLO 205. Put plainly: Anticancer activity against human COLO205 cells after 48 hrs by MTT assay. The data set is classed as functional, cell-based. The conditions noted are these: COLO 205, 48 h.
Data set [7] concerns A549. As to the kind of experiment: Induction of apoptosis in human A549 cells assessed as early apoptotic cells at 1 uM after 48 hrs by annexin V-FITC and propidium iodide staining method (RVb = 0.01 %). It counts as functional.
Data set [8] has as its system A549. As to the kind of experiment: Induction of apoptosis in human A549 cells assessed as viable cells at 1 uM after 48 hrs by annexin V-FITC and propidium iodide staining method (RVb = 99.93 %). It counts as functional. The conditions noted are these: A549, 48 h, read-out: Activity.
Data set [9] concerns A549. Put plainly: Induction of cell cycle arrest in human A549 cells assessed as accumulation at S phase at 2 uM after 48 hrs by propidium iodide staining-based flow cytometry (reference value: 13.31 %). The data set is classed as functional. (In general: A flow cytometer gives signals particle by particle.)
Data set [10] deals with A549. As to the kind of experiment: Induction of cell cycle arrest in human A549 cells assessed as accumulation at G2 phase at 2 uM after 48 hrs by propidium iodide staining-based flow cytometry (reference value: 9.23 %). The data set is classed as functional.
The subject of data set [11] is A549. As to the kind of experiment: Induction of apoptosis in human A549 cells assessed as late apoptotic cells at 2 uM after 48 hrs by annexin V-FITC and propidium iodide staining method (RVb = 0.02 %). The data set is classed as functional.
Data set [12] relates to A549. Put plainly: Induction of apoptosis in human A549 cells assessed as necrotic cells at 1 uM after 48 hrs by annexin V-FITC and propidium iodide staining method (RVb = 0.04 %). The data set is classed as functional.
Data set [13] has as its system A549. As to the kind of experiment: Induction of apoptosis in human A549 cells assessed as activation of caspase-3 activity at 1 to 2 uM after 48 hrs by ELISA relative to control. It counts as functional. A general note: ELISA stands for enzyme-linked immunosorbent assay.
Data set [14] concerns A549. Put plainly: Induction of cell cycle arrest in human A549 cells assessed as accumulation at Sub G1 phase at 1 uM after 48 hrs by propidium iodide staining-based flow cytometry (reference value: 0.67 %). The data set is classed as functional.
Data set [15] concerns A549. As to the kind of experiment: Induction of cell cycle arrest in human A549 cells assessed as accumulation at Sub G1 phase at 2 uM after 48 hrs by propidium iodide staining-based flow cytometry (reference value: 0.67 %). It counts as functional.
Data set [16] has as its system A549. As to the kind of experiment: Induction of cell cycle arrest in human A549 cells assessed as accumulation at G2 phase at 1 uM after 48 hrs by propidium iodide staining-based flow cytometry (reference value: 9.23 %). The data set is classed as functional.
Data set [17] deals with A549. Put plainly: Induction of cell cycle arrest in human A549 cells assessed as accumulation at G1 phase at 1 uM after 48 hrs by propidium iodide staining-based flow cytometry (reference value: 76.31 %). The data set is classed as functional.
The test system of data set [18] is A549. As to the kind of experiment: Induction of cell cycle arrest in human A549 cells assessed as decrease in accumulation at G0/G1 phase after 48 hrs by propidium iodide staining-based flow cytometry. The data set is classed as functional.
Data set [19] has as its system A549. As to the kind of experiment: Induction of apoptosis in human A549 cells assessed as viable cells at 2 uM after 48 hrs by annexin V-FITC and propidium iodide staining method (RVb = 99.93 %). The data set is classed as functional. The conditions noted are these: A549, 48 h, read-out: Activity.
Data set [20] concerns A549. Put plainly: Induction of cell cycle arrest in human A549 cells assessed as accumulation at subG1 phase after 48 hrs by propidium iodide staining-based flow cytometry. The data set is classed as functional.
Data set [21] deals with A549. As to the kind of experiment: Induction of apoptosis in human A549 cells assessed as early apoptotic cells at 2 uM after 48 hrs by annexin V-FITC and propidium iodide staining method (RVb = 0.01 %). It counts as functional.
Data set [22] concerns A549. Put plainly: Induction of apoptosis in human A549 cells assessed as necrotic cells at 2 uM after 48 hrs by annexin V-FITC and propidium iodide staining method (RVb = 0.04 %). It counts as functional.
Data set [23] concerns A549. As to the kind of experiment: Induction of apoptosis in human A549 cells assessed as nuclear condensation at 2 uM after 48 hrs by Hoechst 33258 staining-based fluorescence microscopy relative to control. It counts as functional, cell-based.
In data set [24] the test system is A549. Put plainly: Induction of apoptosis in human A549 cells assessed as late apoptotic cells at 1 uM after 48 hrs by annexin V-FITC and propidium iodide staining method (RVb = 0.02 %). It counts as functional.
In data set [25] the test system is A549. Put plainly: Induction of cell cycle arrest in human A549 cells assessed as accumulation at S phase at 1 uM after 48 hrs by propidium iodide staining-based flow cytometry (reference value: 13.31 %). The data set is classed as functional.
Data set [26] relates to A549. As to the kind of experiment: Induction of apoptosis in human A549 cells assessed as oligoneucleosomal DNA fragmentation at 1 to 2 uM after 48 hrs by agarose gel electrophoresis technique. It counts as functional, cell-based.
The test system of data set [27] is A549. As to the kind of experiment: Induction of cell cycle arrest in human A549 cells assessed as accumulation at G1 phase at 2 uM after 48 hrs by propidium iodide staining-based flow cytometry (reference value: 76.31 %). It counts as functional.

As to `COc1cc2c(cc1OCCCN1c3cccc4cccc(c34)S1(=O)=O)N=C[C@@H]1CCCN1C2=O`, the Activity entry in [1] was “Non-toxic”. The IC50 turned out to be 9.8 µM in data set [2], 9.56 µM in [3], 10 µM in data set [5] and 7.66 µM in data set [6]. In addition, the ΔTm in data set [4] stood at 4.9 °C.
With `COc1cc2c(cc1OCCCCCCN1C(=O)c3cccc4cccc1c34)N=C[C@@H]1CCCN1C2=O`, in data set [1], the Activity result was “Non-toxic”. Also, the IC50 amounted to 4.89 µM in [2], 3.31 µM in data set [3], 32.7 µM in data set [5] and 14.3 µM in data set [6]. Also, the ΔTm in data set [4] came to 2.1 °C.
On to `COc1cc2c(cc1OCCCN1C(=O)c3cccc4cccc1c34)N=C[C@@H]1CCCN1C2=O`, for which the Activity entry in [1] is on record as “Non-toxic”. The IC50 in data set [2] stood at 7.67 µM; in [3], 3.04 µM; in [5], 13.8 µM; in [6], 8.65 µM. Moreover, in data set [4], the ΔTm worked out at 3.2 °C.
`COc1cc2c(cc1OCCCCN1c3cccc4cccc(c34)S1(=O)=O)N=C[C@@H]1CCCN1C2=O`: in data set [1], the Activity entry is recorded as “Non-toxic”. Also, the half-maximal inhibitory concentration (IC50) was 14.9 µM in data set [2], 3.34 µM in data set [3], 19.6 µM in data set [5] and 3.71 µM in [6]. Also, in data set [4], the ΔTm amounted to 3.9 °C.
With `COc1cc2c(cc1OCCCCn1c(=C(C#N)C#N)c3cccc4cccc1c43)N=C[C@@H]1CCCN1C2=O`, in data set [1], the Activity result is recorded as “Non-toxic”. Further, the IC50 in [2] amounted to 14.8 µM; in data set [3], 2.5 µM; in [5], 25.5 µM; in [6] it was 2.95 µM. For the same compound, the ΔTm in data set [4] stood at 2.7 °C.
With `COc1cc2c(cc1OCCCCCCn1c(=C(C#N)C#N)c3cccc4cccc1c43)N=C[C@@H]1CCCN1C2=O`, in [1], the Activity entry is reported as “Non-toxic”. The IC50 in data set [2] amounted to 19.3 µM; in data set [3], 1.25 µM; in data set [5] it was 18.9 µM; in [6], 16.7 µM. Also, the ΔTm in data set [4] worked out at 2 °C.
As to `COc1cc2c(cc1OCCCCCN1c3cccc4cccc(c34)S1(=O)=O)N=C[C@@H]1CCCN1C2=O`, the Activity entry in [1] is “Non-toxic”. Moreover, the IC50 in data set [2] amounted to 9.7 µM; in [3], 4.67 µM; in [5], 14.4 µM; in [6] it was 15.1 µM. For the same compound, in [4], the ΔTm was 5.6 °C.
Consider `COc1cc2c(cc1OCCCCN1C(=O)c3cccc4cccc1c34)N=C[C@@H]1CCCN1C2=O`, for which the Activity entry in data set [1] was “Non-toxic”. The IC50 amounted to 3.23 µM in data set [2], 1.34 µM in data set [3], 9.8 µM in data set [5] and 3.31 µM in data set [6]. Moreover, the ΔTm in [4] came out at 4 °C.
In the case of `COc1cc2c(cc1OCCCCCn1c(=C(C#N)C#N)c3cccc4cccc1c43)N=C[C@@H]1CCCN1C2=O`, in data set [1], the Activity result is “Non-toxic”. Moreover, the half-maximal inhibitory concentration (IC50) in data set [2] was determined as 36.5 µM; in [3], 4.46 µM; in data set [5] it was 5.86 µM; in data set [6], 25.9 µM. Further, in data set [4], the ΔTm worked out at 2.8 °C.
For the compound `COc1cc2c(cc1OCCCn1c(=C(C#N)C#N)c3cccc4cccc1c43)N=C[C@@H]1CCCN1C2=O`, the Activity entry in data set [1] is “Non-toxic”. The IC50 was 17.9 µM in data set [2], 4.67 µM in data set [3], 4.86 µM in [5] and 6.1 µM in data set [6]. In addition, the ΔTm in [4] stood at 3.4 °C.
In the case of `COc1cc2c(cc1OCCCCCCN1c3cccc4cccc(c34)S1(=O)=O)N=C[C@@H]1CCCN1C2=O`, the Activity in data set [7] is on record as 32.55%; in [1] it was “Non-toxic”; in data set [9], 9.93%; in [10], 0.37%; in data set [11] it was 42.4%; in [12] it was 1.93%. The Activity in data set [14] is 42.83%; in data set [15], 66.94%; in [16] it was 3.75%; in [17], 36.77%; in data set [18], “Dose-dependent effect”; in [20], “Dose-dependent effect”. Further, the Activity in data set [21] stood at 26.07%; in data set [22] it was 2.77%; in data set [24], 24.94%; in data set [25], 15.34%; in data set [27], 20.48%. Further, the IC50 amounted to 1.52 µM in data set [2], 1.72 µM in data set [3], 1.05 µM in data set [5] and 1.21 µM in data set [6]. For the same compound, the viability at 1 µM in data set [8] came out at 40.6%. In addition, the “fold change (FC)” value in data set [13] is given as 4. For the same compound, the ΔTm in data set [4] was 7.6 °C. In addition, the viability at 2 µM in [19] stood at 28.8%. In addition, the result in data set [23] and in data set [26] was Active.
As to `COc1cc2c(cc1OCCCCCN1C(=O)c3cccc4cccc1c34)N=C[C@@H]1CCCN1C2=O`, the Activity entry in data set [1] is listed as “Non-toxic”. Further, the IC50 in data set [2] came out at 15.5 µM; in data set [3], 3.71 µM; in data set [5], 21.9 µM; in [6], 9.76 µM. Further, in data set [4], the ΔTm turned out to be 5.2 °C.
On to `COc1cccc2c1C(=O)c1c(O)c3c(c(O)c1C2=O)C[C@@](O)(C(=O)CO)C[C@@H]3O[C@H]1C[C@H](N)[C@H](O)[C@H](C)O1` [DOXORUBICIN], for which the values for the IC50 in data set [2], in data set [3] and in [6] were 2.51 µM, 0.03 µM and 1.69 µM, respectively.
For `COc1cc2c(cc1O)N=C[C@@H]1CCCN1C2=O`, the Activity was found to be 39.1% in [7]; 1.91% in [12]; 10.15% in data set [14]; 8.57% in [16]; 40.78% in data set [17]; 17.73% in data set [24]. The Activity in [25] is reported as 38.93%. Also, the IC50 in [2] came to 1.19 µM; in data set [3], 1.65 µM; in [5], 1.11 µM; in [6], 0.86 µM. Moreover, in data set [8], the viability at 1 µM was determined as 41.2%. In addition, the ΔTm in data set [4] was 0.7 °C. For the same compound, the result in [23] was Active.

Broadly, the IC50 is the midpoint of a concentration-inhibition curve. The low end stands for higher potency, the high end for lower potency. By ΔTm is commonly meant the change in melting temperature against a reference sample.
